pIC50: −log10 of the molar value. Read-outs that look alike come from different tables or passages of the source.
Assays:
KRAS G12D = KRAS G12D (Homo sapiens (Human), UniProt P01116, G12D); assay: KRAS G12D LoEnz Biochemical Assay, BODIPY-GDP Exchange TR-FRET (SOS1-mediated nucleotide exchange); details: read-out: KRas (G12D) GDP HTRF IC50
KRAS WT [1] = molecular target: T1, KRAS WT (Homo sapiens (Human), UniProt P01116); assay: KRAS WT Biochemical Assay, BODIPY-GDP Exchange TR-FRET (Example 501; 3 nM KRAS WT, 3 nM SOS1, 60-minute incubation); details: read-out: KRas HTRF IC50
Outline: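 SOS1-mediated exchange assay: 3 nM biotin-KRAS WT with terbium-streptavidin, started with 3 nM SOS1 and 300 nM BODIPY-GDP, HEPES pH 7.5 with MgCl2. TR-FRET (520/490 nm) read after 60 min; normalized to DMSO and full-inhibition control, IC50 from 4-parameter Hill fit.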

[2] = tested on: HPAC (homozygous mutant KRAS G12D human pancreatic cell line); assay: KRAS 3D-Cell Proliferation Assay, HPAC (CellTiter-Glo 3D, 7 days); type: cell-based; details: HPAC 3D culture, read-out: Prolif HPAC 3D ATP IC50
Procedure: (§1) Example 503: KRAS 3D-Cell Proliferation Assays. Cellular potencies of compounds are assessed by evaluating inhibition of proliferation in 3D cultures of homozygous mutant KRAS G12D human pancreatic cell lines (AsPC-1 and HPAC) as compared to a KRAS wild type human lung adenocarcinoma cell line (PC-9 and/or H1975). Cells are seeded into 384-well black round-bottom, ultra-low attachment assay plates in 50 uL cell growth medium (RPMI-1640 with 10% fetal bovine serum and 2 mM L-glutamine). After overnight incubation at 37° C. and 5% CO2, compounds solubilized in DMSO are added as dilution series to the wells in a total volume of 150 nL (0.3% DMSO final). The cells are incubated for 7 days at 37° C. and 5% CO2. Cell proliferation is quantitated by addition of 40 uL/well of CellTiter-GloO 3D (Promega), and the well contents are mixed 20× at high speed using liquid handling automation workstation (Bravo with 384-well head) and centrifuged at 1500 rpm for 2 minutes to eliminate bubbles. This reagent in combination with mechanical disruption releases the cellular ATP to promote activity in a luciferase-based enzyme/substrate chemiluminescent detection system. After a 30-minute incubation under ambient conditions with shaking and an additional 10 minutes without shaking, the luminescence is read on a plate reader (e.g. EnVision [PerkinElmer]). The results are normalized to percent inhibition based on the following control samples: DMSO (0% inhibition) and 1 uM staurosporine (100% inhibition). The normalized luminescence results are plotted against compound concentration, and the data are fit to a 4-parameter Hill equation to determine the IC50 values.

[3] = tested on: H1975 (KRAS wild type human lung adenocarcinoma cell line); assay: KRAS 3D-Cell Proliferation Assay, H1975 (CellTiter-Glo 3D, 7 days); type: cell-based; details: H1975 3D culture, read-out: Prolif H1975 3D ATP IC50
Procedure: as §1

KRAS WT [4] = molecular target: T1, KRAS WT; assay: KRAS WT Biochemical Assay, BODIPY-GDP Exchange TR-FRET (Example 502; 0.06 nM KRAS WT, 15 nM GDP, 300 nM SOS1, 120-minute incubation); details: read-out: KRas HTRF IC50
Outline: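 IC50 from a 4-parameter Hill fit of percent inhibition, itself the TR-FRET 520/490 nm ratio scaled between DMSO and a fully inhibiting control. Reaction: 300 nM SOS1 and 300 nM BODIPY-GDP added to preformed 0.06 nM KRAS WT/15 nM GDP/Tb-streptavidin complex; 120 min incubation; pH 7.5 HEPES, MgCl2, DTT.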

T1 sequence (P01116-2 other isoform, or with tags, fused parts or gaps): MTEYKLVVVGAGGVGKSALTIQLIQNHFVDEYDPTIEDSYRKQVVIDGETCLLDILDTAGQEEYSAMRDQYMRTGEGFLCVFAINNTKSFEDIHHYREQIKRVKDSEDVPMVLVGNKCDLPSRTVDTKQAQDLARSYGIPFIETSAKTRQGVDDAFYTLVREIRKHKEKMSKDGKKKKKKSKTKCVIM
KRAS G12D, sequence (P01116-2 other isoform, or with tags, fused parts or gaps G12D): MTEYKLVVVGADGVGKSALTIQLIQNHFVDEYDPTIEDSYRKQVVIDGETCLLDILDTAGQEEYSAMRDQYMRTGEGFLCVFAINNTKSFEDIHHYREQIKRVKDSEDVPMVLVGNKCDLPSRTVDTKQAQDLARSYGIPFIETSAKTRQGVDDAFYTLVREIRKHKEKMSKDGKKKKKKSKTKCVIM

| SMILES | pIC50 (KRAS G12D) | pIC50 (KRAS WT [1]) | pIC50 ([2]; Homo sapiens, HPAC, 168 h) | pIC50 ([3]; Homo sapiens, NCI-H1975, 168 h) | pIC50 (KRAS WT [4]) | pIC50 [2] | pIC50 [3] |
| --- | --- | --- | --- | --- | --- | --- | --- |
| Cc1nc(N)cc(-c2nc3c4c(nc(OCC5N(C)CC56CC6(F)F)nc4c2F)N2C[C@H]4CC[C@H](N4)[C@H]2[C@H](C(F)(F)F)O3)c1C(F)(F)F (single isomer, unassigned) [262 (isomer 4)] | 8.94 | 7.45 | 7.36 | 5.36 |  |  |  |
| CC(c1cc(F)c(N)cc1-c1nc2c3c(nc(OC[C@@]45CCCN4C[C@H](F)C5)nc3c1F)N1C[C@H]3CC[C@H](N3)[C@H]1[C@H](C)O2)C(F)F (single isomer, unassigned) [181 (isomer 2)] | 7.30 | 5.52 | 6.04 | 5.14 |  |  |  |
| Cc1c(F)c(N)cc(-c2nc3c4c(nc(OC[C@@H]5C[C@@H](F)[C@H]6CCCN56)nc4c2F)N2C[C@H]4CC[C@H](N4)[C@H]2[C@H](C)O3)c1C(F)(F)F (single isomer, unassigned) [Compound 160 (diast. 1)] | 9.85 |  |  | 6.00 | 7.50 |  |  |
| C[C@@H]1Oc2nc(-c3cc(N)c(F)cc3[C@H](C)C(F)F)c(F)c3nc(OC[C@@]45CCCN4C[C@H](F)C5)nc(c23)N2C[C@H]3CC[C@H](N3)[C@@H]12 (single isomer, unassigned) [181 (isomer 1)] | 6.80 |  | 5.70 |  | 4.96 |  |  |
| Cc1nc(N)cc(-c2nc3c4c(nc(OCC5N(C)C[C@]56CC6(F)F)nc4c2F)N2C[C@H]4CC[C@H](N4)[C@H]2[C@H](C(F)(F)F)O3)c1C(F)(F)F (single isomer, unassigned) [262 (isomer 3)] | 7.39 | 5.97 | 6.01 | 4.70 |  |  |  |
| Cc1c(F)c(N)cc(-c2nc3c4c(nc(OC[C@@]56CCCN5C[C@H](F)C6)nc4c2F)N2CCN[C@@H](C)[C@H]2[C@@H](C)O3)c1C(F)(F)F (single isomer, unassigned) [234 (isomer 2)] | 6.68 | 6.29 | 5.70 | 5.01 |  |  |  |
| Cc1c(F)c(N)cc(-c2nc3c4c(nc(OC[C@H]5COC[C@H]6CCCN65)nc4c2F)N2C[C@H]4CC[C@H](N4)[C@H]2[C@H](C)O3)c1C(F)(F)F (single isomer, unassigned) [121 (isomer 1)] | 9.17 |  |  | 5.87 | 6.97 |  |  |
| Cc1nc(N)cc(-c2nc3c4c(nc(OC[C@H]5N(C)C[C@]56CC6(F)F)nc4c2F)N2C[C@H]4CC[C@H](N4)[C@H]2[C@H](C(F)(F)F)O3)c1C(F)(F)F (single isomer, unassigned) [262 (isomer 1)] | 7.50 | 6.18 | 6.32 | 4.70 |  |  |  |
| Cc1nc(N)cc(-c2nc3c4c(nc(OC[C@H]5N(C)C[C@@]56CC6(F)F)nc4c2F)N2C[C@H]4CC[C@H](N4)[C@H]2[C@H](C(F)(F)F)O3)c1C(F)(F)F (single isomer, unassigned) [262 (isomer 2)] | 8.15 | 6.73 |  | 4.70 |  |  |  |
| Cc1c(F)c(N)cc(-c2nc3c4c(nc(OC[C@@]56CCCN5C[C@H](F)C6)nc4c2F)N2C[C@H]4CC[C@H](N4)[C@H]2[C@H](C(F)F)O3)c1C(F)(F)F (single isomer, unassigned) [238 (isomer 1)] | 5.11 | 5.42 | 5.70 |  |  |  |  |
| Cc1c(F)c(N)cc(-c2nc3c4c(nc(OC[C@@]56CCCN5C[C@H](F)C6)nc4c2F)N2CCN[C@@H](C)[C@H]2[C@H](C)O3)c1C(F)(F)F (single isomer, unassigned) [234 (isomer 1)] | 5.88 | 4.63 | 5.70 | 5.07 |  |  |  |
| Cc1cc(N)c(Cl)c(-c2nc3c4c(nc(OC[C@@]56CCCN5C[C@H](F)C6)nc4c2Cl)N2C[C@H]4CC[C@H](N4)[C@H]2[C@H](C)O3)c1C(F)(F)F (single isomer, unassigned) [Compound 240 (atrop. 1)] | 7.35 | 5.97 |  |  |  | 6.23 | 5.19 |
| Cc1c(F)c(N)cc(-c2nc3c4c(nc(OC[C@H]5C[C@@H]6COCCN65)nc4c2F)N2C[C@H]4CC[C@H](N4)[C@H]2[C@H](C)O3)c1C(F)(F)F (single isomer, unassigned) [159 (diast. 1)] | 9.55 |  |  | 5.37 | 7.19 |  |  |
| Cc1nc(N)cc(-c2nc3c4c(nc(OC[C@]56CCN5CC(F)(F)C6)nc4c2F)N2C[C@H]4CC[C@H](N4)[C@H]2[C@H](C(F)(F)F)O3)c1C(F)(F)F (single isomer, unassigned) [252 (isomer 2)] | 8.23 | 6.80 |  | 4.70 |  |  |  |
| Cc1c(F)c(N)cc(-c2nc3c4c(nc(OCC56CCN5CC(F)(F)C6)nc4c2F)N2C[C@H]4CC[C@H](N4)[C@H]2[C@H](C(F)(F)F)O3)c1C(F)(F)F (single isomer, unassigned) [263 (diast. 2)] | 9.28 | 7.81 | 7.81 | 6.47 |  |  |  |
| Cc1c(F)c(N)cc(-c2nc3c4c(nc(OC[C@@]56CCCN5C[C@H](F)C6)nc4c2F)N2CCN[C@H](C)[C@@H]2[C@H](C)O3)c1C(F)(F)F (single isomer, unassigned) [234 (isomer 3)] | 5.32 | 5.34 | 5.70 | 4.78 |  |  |  |
| Cc1cc(N)c(Cl)c(-c2nc3c4c(nc(OC[C@@]56CCCN5C[C@H](F)C6)nc4c2Cl)N2C[C@H]4CC[C@H](N4)[C@H]2[C@H](C)O3)c1C(F)(F)F (single isomer, unassigned) [Compound 240 (atrop. 2)] | 9.85 | 7.82 |  |  |  | 8.73 | 5.97 |
| Cc1c(F)c(N)cc(-c2nc3c4c(nc(OC[C@@]56CCCN5C[C@H](F)C6)nc4c2F)N2CCN[C@H](C)[C@@H]2[C@@H](C)O3)c1C(F)(F)F (single isomer, unassigned) [234 (isomer 4)] | 6.23 | 6.29 | 5.70 | 5.07 |  |  |  |
| Cc1c(F)c(N)cc(-c2nc3c4c(nc(OC[C@@]56CCN5CC(F)(F)C6)nc4c2F)N2C[C@H]4CC[C@H](N4)[C@H]2[C@H](C(F)(F)F)O3)c1C(F)(F)F (single isomer, unassigned) [263 (diast. 1)] | 9.59 | 8.26 | 8.21 | 6.10 |  |  |  |
| Cc1c(F)c(N)cc(-c2nc3c4c(nc(OC[C@@]56CCCN5C[C@H](F)[C@@H]6F)nc4c2F)N2C[C@H]4CC[C@H](N4)[C@H]2[C@H](C)O3)c1C(F)(F)F (single isomer, unassigned) [143 (isomer 3)] | 9.37 |  |  | 5.96 | 7.33 |  |  |
| Cc1c(F)c(N)cc(-c2nc3c4c(nc(OC[C@@]56CCN(C)C5COC6)nc4c2F)N2C[C@H]4CC[C@H](N4)[C@H]2[C@H](C)O3)c1C(F)(F)F (single isomer, unassigned) [258 (isomer 1)] | 10.05 | 7.83 | 8.30 |  |  |  |  |
| C[C@@H]1Oc2nc(-c3c(Cl)c(N)c(F)c(F)c3C(F)(F)F)c(F)c3nc(OC[C@@]45CCCN4C[C@H](F)C5)nc(c23)N2C[C@H]3CC[C@H](N3)[C@@H]12 (atropisomer, axis not shown; (aS)) [Compound 106, 2-Chloro-5,6-difluoro-3-((5S,5aS,6S,9R)-1-fluoro-12-(((2R,7aS)-2-fluorotetrahydro-1H-pyrrolizin-7a(5H)-yl)methoxy)-5-methyl-5a,6,7,8,9,10-hexahydro-5H-4-oxa-3,10a,11,13,14-pentaaza-6,9-methanonaphtho[1,8-ab]heptalen-2-yl)-4-(trifluoromethyl)aniline] |  |  |  |  |  |  | 6.21 |
| Cc1c(F)c(N)cc(-c2nc3c4c(nc(OC[C@H]5CC[C@@H]6CN(C)C(=O)CN56)nc4c2F)N2C[C@H]4CC[C@H](N4)[C@H]2[C@H](C)O3)c1C(F)(F)F (single isomer, unassigned) [131 (isomer 4)] | 8.94 |  |  |  | 6.71 | 7.05 |  |

— patent publication US20240025919A1, “AZA-TETRACYCLIC OXAZEPINE COMPOUNDS AND USES THEREOF” (Genentech, Inc., priority 2022, published 2024)
